The target in this assay is NS3 (Hepatitis C virus, UniProt A3EZJ3). The assay is described as follows: Inhibitory concentration required against NS3 Protease of Hepatitis C Virus. Also on record: species or system Hepacivirus hominis.

Starred links: 1 amine or outer side, 2 acyl side, 3 side chain; linkers in the order of their positions; H or OH if unused. Non-standard residues stand in square brackets, D forms with d. Residues, ends and D or L forms follow the SMILES beside them. *: point of attachment. CH2(1-naphthyl) = c1ccc2c(C*)cccc2c1; Hyp = O=C(O)[C@@H]1C[C@@H](O)CN1; Suc = O=C(CCC(=O)[*:2])[*:1]; Nva = CCC[C@H](N)C(=O)O; Ac3c = NC1(C(=O)O)CC1

Chain of NS3 (A3EZJ3 whole entry): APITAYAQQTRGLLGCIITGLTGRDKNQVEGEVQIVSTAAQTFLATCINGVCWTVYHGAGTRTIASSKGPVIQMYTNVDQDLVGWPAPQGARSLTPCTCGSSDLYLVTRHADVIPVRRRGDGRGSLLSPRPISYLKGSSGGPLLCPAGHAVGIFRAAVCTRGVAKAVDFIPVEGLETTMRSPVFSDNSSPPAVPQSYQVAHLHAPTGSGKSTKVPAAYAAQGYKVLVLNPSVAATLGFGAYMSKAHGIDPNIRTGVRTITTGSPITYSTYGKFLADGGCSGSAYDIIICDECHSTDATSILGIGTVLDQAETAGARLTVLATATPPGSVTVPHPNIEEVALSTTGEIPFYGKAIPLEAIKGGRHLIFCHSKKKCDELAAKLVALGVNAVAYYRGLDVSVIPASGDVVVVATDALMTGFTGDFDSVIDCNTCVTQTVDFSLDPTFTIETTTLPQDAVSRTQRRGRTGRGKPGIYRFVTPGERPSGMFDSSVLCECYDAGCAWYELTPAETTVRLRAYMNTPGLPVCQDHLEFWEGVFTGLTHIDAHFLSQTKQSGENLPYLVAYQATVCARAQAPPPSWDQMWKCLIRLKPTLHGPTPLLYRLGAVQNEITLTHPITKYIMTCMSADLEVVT

In turn, `CC[C@H](C)[C@H](NC(=O)CCC(=O)O)C(=O)N[C@H](C(=O)N1C[C@H](OCc2cccc3ccccc23)C[C@H]1C(=O)NC1(C(=O)O)CC1)C(C)C` (Suc-IV[Hyp](CH2(1-naphthyl))[Ac3c]-OH) showed a half-inhibitory concentration (IC50) of 5.5 µM.
In the case of `CCC[C@H](NC(=O)[C@@H]1C[C@@H](OCc2cccc3ccccc23)CN1C(=O)[C@@H](NC(=O)[C@@H](NC(=O)CCC(=O)O)[C@@H](C)CC)C(C)C)C(=O)O` (Suc-IV[Hyp](CH2(1-naphthyl))[Nva]-OH) it was 22 µM.

(Values after ChEMBL document CHEMBL1132772, “NMR line-broadening and transferred NOESY as a medicinal chemistry tool for studying inhibitors of the hepatitis C virus NS3 protease domain” (Bioorg Med Chem Lett, 2000).)
